The record followed here is patent US20150165097A1, “HARDENABLE ANTIMICROBIAL COMPOSITION” (priority 2012, published 2015).

Where a name gives a salt, the structure may show the parent alone. Read-outs that look alike come from different tables or passages of the source.

Data set [1] is described as follows: Solubility / solution appearance of antimicrobial agent in vehicle before addition of PVC.
Method: The antimicrobial agent was added to a small vial. For samples containing CPC or OCT, benzyl alcohol (BzOH, available from Mallinkrodt Baker Inc. of Phillipsburg, N.J.), was also added and the mixture was vortexed. Zinc octoate (ZnOct) was then added to the mixture. In a separate jar, a batch mixture containing DINCH, ESO and di-IDPP was prepared; the solution was allowed to roll until a clear/colorless mixture was obtained with no mixing lines. In a separate jar, the appropriate amount of batch mixture was added into the vial containing the antimicrobial agent, solvent, and zinc octoate (ZnOct). The mixture was vortexed and the solution was allowed to roll at a setting of 60 rpm until a determination was made as to whether or not the antimicrobial was dissolving in the solution.
The BKC was dispensed into a 25 mL vial. To this was added the DINCH, TIDP, and ZnOct in that order. The vial was then capped and vortexed for several seconds, and then placed on rollers set at 65 rpm in order to promote the dissolution (if possible) of the BKC. […]
The antimicrobial agents assessed were BKC, BZT, OCT, PCMX, POEtOH, and PHMB. The amount of each antimicrobial agent added was calculated to be equal to the same number of moles of BKC at 1.5 wt % in the plastisol formulation. […]
Data set [2] can be described thus: Solubility of antimicrobial agent in plasticizer with heat stabilizer package (Example 2), judged visually. The conditions noted are these: 1.1 wt %; ESO, DDPP and ZnOct present. Here is the method:
To the vial containing the plasticizer and antimicrobial, the appropriate amount (see below) of a master batch solution of PVC heat stabilizer was added. The master batch solution of PVC heat stabilizer included: epoxidized soybean oil (ESO), decyl diphenyl Phosphite (DDPP), and zinc octoate (ZnOct). The solution was allowed to roll overnight at ambient temperature at 60 rpm to determine if the antimicrobial was soluble in that system. Samples were evaluated visually for solubility. […] Samples that were clear were judged to have the cationic antimicrobial completely soluble. Those that were hazy were judged to have the antimicrobial partially soluble. Those that were opaque white were substantially insoluble.

Data set [3] is described as follows: Solubility of antimicrobial agent in plasticizer alone (Example 1). The format is physicochemical. As to the method: The solubility of three different antimicrobial agents: benzalkonium chloride (BKC), octenidine dihydrochloride (OCT), and polyhexamethylene biguanide (PHMB); in various plasticizers was evaluated by the following procedure. The antimicrobial agent was added to a small vial; to this, the plasticizer of interest was added. […] In each solution, 1.5% wt/wt of one antimicrobial agent (BKC, OCT, or PHMB) was combined with 98.5% wt/wt of one of each of the following plasticizers: DINCH, acetyl tributyl citrate, trioctyl trimellitate, dioctyl adipate, or polyester adipate.

With `CCCCCCCCCCCCCC[N+](C)(C)Cc1ccccc1.[Cl-]` [BKC, Benzyl dimethyl tetradecyl ammonium chloride], in data set [1] (Example 4, in the absence of ZnOct), the “Solubility of BKC in DINCH, TIDP vehicle” value was “much less solubility”. In addition, the “Solubility in DINCH, ATC, TOTM, DOA and PEA with heat stabilizing package” value (shortened to “Solubility in DINCH, ATC, TOTM”) in data set [2] is on record as “soluble”. Besides, the Solubility in plasticizer entry in data set [3] is listed as “none of these antimicrobial agents were soluble”.

As for `CCCCCCCCN=c1ccn(CCCCCCCCCCn2ccc(=NCCCCCCCC)cc2)cc1` [OCT, Octenidine dihydrochloride], the “Solubility in DINCH, ATC, TOTM” value in data set [2] is on record as “not soluble”. Moreover, the Solubility in plasticizer entry in data set [3] is “none of these antimicrobial agents were soluble”.

Regarding `OCCOc1ccccc1` [POEtOH, 2-phenoxyethanol], the “Solubility in MESAMOLL” value in data set [1] (Example 8, BZT: at low concentrations of ZnOct, OCT: even with increasing amounts of ZnOct) was “well below their solubility limits”.

In the case of Polyhexamethylene biguanide [PHMB], the “Solubility in DINCH, ATC, TOTM” value in data set [2] is “not soluble”. For the same compound, the Solubility in plasticizer result in data set [3] (1.5% wt/wt antimicrobial agent in 98.5% wt/wt DINCH, acetyl tributyl citrate, trioctyl trimellitate, dioctyl adipate or polyester adipate, rolled 16 hours at 60 rpm) was “none of these antimicrobial agents were soluble”.
